Test results: patent US6818407B2, “Anti-endotoxic antimicrobial cationic peptides and methods of use therfor” (priority 1998, dated 2004)
Ends that are not written are not given here.

Key:
[1] = Lethal endotoxemia in galactosamine-sensitized mice; format: in vivo, CD-1 mice; conditions: peptide 200 μg intraperitoneal within 10 min of 10 μg LPS; 24 hours post injection; 5 mice per group; no peptide 100
Description: To confirm this in vivo, endotoxic shock was induced by intraperitoneal injection of 10 μg of E.coli 0111:B4 LPS in phosphate-buffered saline (PBS; pH 7.2) into galactosamine-sensitized 8- to 10- week old female CD-1 mice (5 per group). In experiments involving peptides, 200 μg in 100 μl of sterile water was injected at separate intraperitoneal sites within 10 min of LPS injection. Survival was monitored at 24 hours post injection.

[2] = system: E. coli; assay: MIC, broth microdilution assay in polypropylene microtiter trays; format: cell-based; conditions: average of three separate experiments
Description: (§1) The biological activity of the peptides can be determined by standard methods known to those of skill in the art, such as Aminimal inhibitory concentration (MIC)≅ assay described in the present examples, whereby the lowest concentration at which no change in OD is observed for a given period of time is recorded as MIC. Alternatively, Afractional inhibitory concentration (FIC)≅ is also useful for determination of synergy between the peptides of the invention, or the peptides in combination with known antibiotics. FICs are performed by checkerboard titrations of peptides in one dimension of a microtiter plate, and of antibiotics in the other dimension, for example. The FIC is calculated by looking at the impact of one antibiotic on the MIC of the other and vice versa. […] Preferably, an FIC of less than 0.5 is obtained for synergism. As used herein, FIC can be determined as follows: [formula]
(§2) A method which employed polypropylene microtiter trays in a broth microdilution assay was developed.

[3] = system: P. aeruginosa; assay: as above; format: cell-based; conditions: average of three separate experiments
Description: as §1, §2

[4] = system: S. aureus K147; assay: as above; format: cell-based; conditions: average of three separate experiments
Description: as §1, §2

[5] = system: S. aureus; assay: as above; format: cell-based; conditions: average of three separate experiments
Description: as §1, §2

[6] = system: S. epidermis; assay: as above; format: cell-based; conditions: average of three separate experiments
Description: as §1, §2

[7] = system: Pseudomonas aeruginosa strain M2; assay: Protection of neutropenic CD-1 mice challenged with Pseudomonas aeruginosa; format: in vivo; parameters: Survival post bacterial challenge, surviving mice: reference not given here; conditions: for Survival (%) post bacterial challenge: PBS 8
Description: CD-1 mice were induced to be neutropenic via 3 intraperitoneal injections of cyclophosphamide ([…]) every another day. Immediately after the third administration of cyclophosphamide, the mice were challenged by intraperitoneal injection of Pseudomonas aeruginosa strain M2 (200-300 organisms/mouse). Cationic peptides (200 µg per mouse=8 mg/kg) in 100 µl buffered citrate were injected intraperitoneally at 30 min (single dose) or 30 min and 16 hrs (double dose) post bacterial challenge, respectively. The data were the average values of 2 individual experiments. PBS was used as a control. […] In general single dose protection studies gave better protection than double dose experiments.

[8] = system: Aeromonas salmonicida (As); format: cell-based; conditions: Mueller Hinton Broth
Description: as §1
(§3) These peptides varied in activity (Table 11), however, the C-terminally capped pleurocidin especially and its N-terminally capped lysine derivative had much better activities against a variety of bacteria including Vibrio anguillarum (Va), Aeromonas salmonicida (As), Staphylococcus epidermidis (C621), Salmonella typhimurium wild type (C587) and phoP phoQ mutant (C610), and Pseudomonas aeruginosa wild type (K799) and outer membrane barrier altered (Z61). The antimicrobial peptide CEME, a fusion peptide made from portions of an insect defensin ceropin A and the bee venom peptide melittin (Piers and Hancock, Mol. Microbiol., 12:951-8, 1994), as well as the known antibiotics polymyxin B and gentamicin were used as controls. Replacing the pleurocidin N-terminus with the dermaseptin N-terminus had no effect. Replacing pleurocidin N-terminus with the ceratoxin N-terminus reduced activity. […] Amidating the C-terminus improved antimicrobial activity. Replacing the pleurocidin C-terminus with the misgurin C-terminus had no effect.
(§4) Bacteria included Vibrio anguillarum (Va), Aeromonas salmonicida (As), Staphylococcus epidermidis (C621), Salmonella typhimurium wild type (C587) and phoP phoQ mutant (C6 10), and Pseudomonas aeruginosa wild type (K799) and outer membrane barrier altered (Z61).

[9] = system: Pseudomonas aeruginosa outer membrane barrier altered (Z61); format: cell-based; conditions: Mueller Hinton Broth
Description: as §1, §3, §4

[10] = system: Pseudomonas aeruginosa wild type (K799); format: cell-based; conditions: Mueller Hinton Broth
Description: as §1, §3, §4

[11] = system: Salmonella typhimurium phoP phoQ mutant (C610); format: cell-based; conditions: Mueller Hinton Broth
Description: as §1, §3, §4

[12] = system: Salmonella typhimurium wild type (C587); format: cell-based; conditions: Mueller Hinton Broth
Description: as §1, §3, §4

[13] = system: Staphylococcus epidermidis (C621); format: cell-based; conditions: Mueller Hinton Broth
Description: as §1, §3, §4

[14] = system: Vibrio anguillarum (Va); format: cell-based; conditions: Mueller Hinton Broth
Description: as §1, §3, §4

Molecule | MIC As [8] | MIC Z61 [9] | MIC K799 [10] | MIC C610 [11] | MIC C587 [12] | MIC C621 [13] | MIC Va [14] | also measured
CC[C@H](C)[C@H](NC(=O)CNC(=O)[C@@H](NC(=O)[C@H](CCCCN)NC(=O)[C@H](CCCCN)NC(=O)[C@H](Cc1ccccc1)NC(=O)[C@H](CC(C)C)NC(=O)[C@H](CCCCN)NC(=O)[C@H](Cc1c[nH]c2ccccc12)NC(=O)[C@@H](N)CCCCN)[C@@H](C)CC)C(=O)NCC(=O)N[C@@H](C)C(=O)N[C@H](C(=O)N[C@@H](CC(C)C)C(=O)N[C@@H](CCCCN)C(=O)N[C@H](C(=O)N[C@@H](CC(C)C)C(=O)N[C@H](C(=O)N[C@H](C(=O)NCC(=O)N[C@@H](CC(C)C)C(=O)N1CCC[C@H]1C(=O)N[C@@H](C)C(=O)N[C@@H](CC(C)C)C(=O)N[C@@H](CCCCN)C(=O)N[C@@H](CC(C)C)C(=O)N[C@H](C(=O)N[C@@H](CCCCN)C(=O)O)[C@@H](C)O)[C@@H](C)O)[C@@H](C)O)C(C)C)C(C)C [CEMA, reference compound] | – | – | – | – | – | – | – | Mortality (%) [1]: 0%
CC[C@H](C)[C@H](NC(=O)[C@H](CC(C)C)NC(=O)[C@H](C)NC(=O)[C@@H]1CCCN1C(=O)[C@H](CC(C)C)NC(=O)CNC(=O)[C@@H](NC(=O)[C@@H](NC(=O)[C@H](CC(C)C)NC(=O)[C@@H](NC(=O)[C@H](CCCCN)NC(=O)[C@H](CCCCN)NC(=O)[C@@H](NC(=O)[C@H](C)NC(=O)[C@@H](NC(=O)[C@@H](NC(=O)[C@H](CC(C)C)NC(=O)[C@H](CCCCN)NC(=O)[C@H](CCCCN)NC(=O)[C@@H](NC(=O)[C@H](Cc1ccccc1)NC(=O)[C@H](CO)NC(=O)[C@H](CCCCN)NC(=O)[C@H](Cc1c[nH]c2ccccc12)NC(=O)[C@@H](N)CCCCN)[C@@H](C)CC)[C@@H](C)O)[C@@H](C)O)C(C)C)C(C)C)[C@@H](C)O)[C@@H](C)O)C(=O)N[C@@H](CO)C(=O)O [CP-29, reference compound] | – | – | – | – | – | – | – | MIC E. coli [2]: 2 µg/mL; MIC P. aeruginosa [3]: 6 µg/mL; MIC S. aureus K147 [4]: 11 µg/mL; MIC S. aureus [5]: 19 µg/mL; MIC S. epidermis [6]: 5 µg/mL; Survival post bacterial challenge, surviving mice ([7]; single dose (200 μg per mouse i.p. at 30 min), 16 hr): 8; Survival post bacterial challenge, surviving mice ([7]; single dose, 24 hr): 8; Survival post bacterial challenge, surviving mice ([7]; single dose, 41 hr): 7; Survival post bacterial challenge, surviving mice ([7]; single dose, 48 hr): 6; Survival post bacterial challenge, surviving mice ([7]; single dose, 64 hr): 4; Survival (%) post bacterial challenge ([7]; single dose, 64 hr): 50%; Survival post bacterial challenge, surviving mice ([7]; single dose, 72 hr): 4; Survival (%) post bacterial challenge ([7]; single dose, 72 hr): 50%; Survival post bacterial challenge, surviving mice ([7]; single dose, 96 hr): 3; Survival (%) post bacterial challenge ([7]; single dose, 96 hr): 37%
SIGSAFKKAAHVGKHVGKAALGAAARRRK [CER-M] | 32 µg/mL | 64 µg/mL | >64 µg/mL | 8 µg/mL | >64 µg/mL | >64 µg/mL | >64 µg/mL | –
SIGSAFKKAAHVGKHVGKAALTHYL-NH2 [P-CER] | 8 µg/mL | >64 µg/mL | >64 µg/mL | 2 µg/mL | >64 µg/mL | >64 µg/mL | 64 µg/mL | –
gentamicin [reference compound] | <0.5 µg/mL | <0.5 µg/mL | <0.5 µg/mL | <0.5 µg/mL | <0.5 µg/mL | 16 µg/mL | 1 µg/mL | –
polymyxin B [reference compound] | <0.5 µg/mL | <0.5 µg/mL | <0.5 µg/mL | <0.5 µg/mL | <0.5 µg/mL | 16 µg/mL | 16 µg/mL | –
